The source of these data is US7365057B2, “Modified 2′ and 3′-nucleoside prodrugs for treating Flavivridae infections” (priority 2002, dated 2008).

Data set [1] relates to Vero 76, African green monkey kidney cells.
In a further data set the test system is HCV. The settings on record: ribavirin alone; Davis, Gastroenterology 2000; cited from earlier work.

Bounds are passed on as bounds.

Consider “β-D-2′-C-methyl-7-methyl-6-phenyl-3,3a,5,8a-tetrahydro-1,3,4,5,7a-penta-aza-s-indacen-8-one [Compound F]”, for which the CC50 (in the data set with MT-4; in data set [1]; in the data set on BHK) was above 100 µM throughout.

As to `NC(=O)c1ncn([C@@H]2O[C@H](CO)[C@@H](O)[C@H]2O)n1` [Ribavirin, 1-β-D-ribofuranosyl-1-1,2,4-triazole-3-carboxamide], in the data set on HCV, the “effect on serum levels of HCV-RNA” value is reported as “does not lower serum levels of HCV-RNA” and the “patients in whom serum amino transferase levels are reduced to normal” value is 40%.
